The species named for series [1] is Homo sapiens. As to the kind of experiment: Inhibition of P-gp in human Bel7402/5-FU cells assessed as increase in intracellular accumulation of doxorubicin at 0.4 mg/ml preincubated for 48 hrs followed by doxorubicin addition measured after 2 hrs by FACS analysis relative to control. Format: cell-based. On the technique in general: In flow cytometry, cells or beads pass a laser one at a time.

The species entered for series [2] is Homo sapiens. Briefly: Inhibition of P-gp in human Bel7402/5-FU cells assessed as increase in intracellular accumulation of Rh123 at 0.8 mg/ml preincubated for 48 hrs followed by Rh123 addition measured after 2 hrs by FACS analysis relative to control. Format: cell-based.
Series [3] is filed under the species Homo sapiens. Briefly: Inhibition of P-gp in human KB/VCR cells assessed as potentiation of vincristine-induced cytotoxicity by measuring fold reduction in vincristine IC50. Format: cell-based.
The species entered for series [4] is Homo sapiens. As to the kind of experiment: Inhibition of P-gp in human A549/PA cells assessed as synergistic cytotoxicity with paclitaxel after 48 hrs by SRB assay. Format: cell-based. A general note: Sulforhodamine B stains cellular protein and so reports cell mass.
The species named for series [5] is Homo sapiens. Briefly: Inhibition of P-gp in human MCF7/DOX cells assessed as potentiation of doxorubicin-induced cytotoxicity by measuring fold reduction in doxorubicin IC50 at 5 uM. Format: cell-based.
Series [6] deals with K562/A02. As to the kind of experiment: Inhibition of P-gp in human K562/A02 cells assessed as potentiation of doxorubicin-induced cytotoxicity by measuring fold reduction in doxorubicin IC50 at 5 uM. The series is classed as cell-based.
The species named for series [7] is Homo sapiens. As to the kind of experiment: Inhibition of P-gp in human KB/VCR cells assessed as potentiation of vincristine-induced cytotoxicity by measuring fold reduction in vincristine IC50 at 5 uM. Format: cell-based.
For series [8], the species on record is Homo sapiens. As to the kind of experiment: Inhibition of P-gp in human A549/DDP cells assessed as potentiation of doxorubicin-induced cytotoxicity. Format: cell-based.
For series [9], the species on record is Homo sapiens. Briefly: Inhibition of P-gp in human MCF7/DOX cells assessed as potentiation of mitoxantrone-induced cytotoxicity by measuring fold reduction in mitoxantrone IC50 at 50 uM after 48 hrs by MTT assay. Format: cell-based.
The test system of series [10] is K562/A02. As to the kind of experiment: Inhibition of P-gp in human K562/A02 cells assessed as potentiation of doxorubicin-induced cytotoxicity by measuring fold reduction in doxorubicin IC50. The series is classed as cell-based.
Series [11] is filed under the species Homo sapiens. Briefly: Inhibition of P-gp in human K562/VCR cells assessed as potentiation of doxorubicin-induced cytotoxicity by measuring fold reduction in doxorubicin IC50. The series is classed as cell-based.
Series [12] is filed under the species Homo sapiens. As to the kind of experiment: Inhibition of P-gp in human MCF7/ADR cells assessed as potentiation of doxorubicin-induced cytotoxicity by measuring fold reduction in doxorubicin IC50 at 50 uM after 0.5 to 4 hrs by fluorometric method. The series is classed as cell-based.
Series [13] deals with Multidrug resistance-associated protein 1 (Homo sapiens, UniProt P33527). Briefly: Inhibition of MRP1 in human MCF7/ADR cells assessed as potentiation of mitoxantrone-induced cytotoxicity by measuring fold reduction in mitoxantrone IC50 at 50 uM after 0.5 to 4 hrs by fluorometric method. Format: cell-based.
Series [14] is filed under the species Homo sapiens. Briefly: Inhibition of P-gp in human KBV1 cells assessed as potentiation of vinblastine-induced cytotoxicity by measuring fold reduction in vinblastine IC50 at 50 uM. The series is classed as cell-based.
The nature of series [15]: Inhibition of P-gp in human MCF7/DX1 cells assessed as […] Rh123 accumulation after 30 mins by FACS analysis. Format: cell-based. The following applies: MCF7/DX1, 0.5 h.
A short description of series [16]: Inhibition of P-gp in human MCF7/DX1 cells assessed as […] [3H]paclitaxel accumulation after 40 mins by scintillation counting method. The series is classed as cell-based.
The species entered for series [17] is Homo sapiens. As to the kind of experiment: Inhibition of P-gp in human Caco2 cells assessed as potentiation of doxorubicin-induced cytotoxicity by measuring fold reduction in doxorubicin IC50. The series is classed as cell-based.
The species entered for series [18] is Homo sapiens. Briefly: Inhibition of P-gp in human CEM/DOX5000 cells assessed as potentiation of doxorubicin-induced cytotoxicity by measuring fold reduction in doxorubicin IC50. Format: cell-based.
For another series, the species on record is Mus musculus. As to the kind of experiment: Inhibition of P-gp in mouse P388/DOX cells assessed as potentiation of doxorubicin-induced cytotoxicity by measuring fold reduction in doxorubicin IC50. Format: cell-based.
The species entered for series [19] is Homo sapiens. As to the kind of experiment: Inhibition of P-gp in human HCT116/VM46 cells assessed as potentiation of vinblastine-induced cytotoxicity by measuring fold reduction in vinblastine IC50. Format: cell-based.
For series [20], the species on record is Homo sapiens. As to the kind of experiment: Inhibition of P-gp in human CCRF-CEM/VLB100 cells assessed as potentiation of vinblastine-induced cytotoxicity by measuring fold reduction in vinblastine IC50.
The species entered for series [21] is Homo sapiens. As to the kind of experiment: Inhibition of P-gp in human HCT116/VM46 cells assessed as potentiation of doxorubicin-induced cytotoxicity by measuring fold reduction in doxorubicin IC50. Format: cell-based.
The species entered for series [22] is Homo sapiens. Briefly: Inhibition of P-gp in human SW620/AD300 cells assessed as potentiation of doxorubicin-induced cytotoxicity by measuring fold reduction in doxorubicin IC50. Format: cell-based.
The test system of another series is NCI-H460. As to the kind of experiment: Inhibition of P-gp in human NCI-H460 resistant cells assessed as potentiation of doxorubicin-induced cytotoxicity by measuring fold reduction in doxorubicin IC50. Format: cell-based.
The nature of series [23]: Inhibition of P-gp in human Caco2 cells assessed as reduction in accumulation of Rh123 preincubated for 30 mins followed by Rh123 addition measured after 90 mins by fluorescence spectrofluorometric method. Format: cell-based. Conditions: Caco-2.
The nature of series [24]: Inhibition of P-gp in human Caco2 cells assessed as reduction in accumulation of calcein-AM preincubated for 30 mins followed by Rh123 addition measured after 90 mins by fluorescence spectrofluorometric method. Format: cell-based. The following applies: Caco-2.

Residues, ends and D or L forms follow the SMILES beside them.

Chain of Multidrug resistance-associated protein 1 (P33527 whole entry): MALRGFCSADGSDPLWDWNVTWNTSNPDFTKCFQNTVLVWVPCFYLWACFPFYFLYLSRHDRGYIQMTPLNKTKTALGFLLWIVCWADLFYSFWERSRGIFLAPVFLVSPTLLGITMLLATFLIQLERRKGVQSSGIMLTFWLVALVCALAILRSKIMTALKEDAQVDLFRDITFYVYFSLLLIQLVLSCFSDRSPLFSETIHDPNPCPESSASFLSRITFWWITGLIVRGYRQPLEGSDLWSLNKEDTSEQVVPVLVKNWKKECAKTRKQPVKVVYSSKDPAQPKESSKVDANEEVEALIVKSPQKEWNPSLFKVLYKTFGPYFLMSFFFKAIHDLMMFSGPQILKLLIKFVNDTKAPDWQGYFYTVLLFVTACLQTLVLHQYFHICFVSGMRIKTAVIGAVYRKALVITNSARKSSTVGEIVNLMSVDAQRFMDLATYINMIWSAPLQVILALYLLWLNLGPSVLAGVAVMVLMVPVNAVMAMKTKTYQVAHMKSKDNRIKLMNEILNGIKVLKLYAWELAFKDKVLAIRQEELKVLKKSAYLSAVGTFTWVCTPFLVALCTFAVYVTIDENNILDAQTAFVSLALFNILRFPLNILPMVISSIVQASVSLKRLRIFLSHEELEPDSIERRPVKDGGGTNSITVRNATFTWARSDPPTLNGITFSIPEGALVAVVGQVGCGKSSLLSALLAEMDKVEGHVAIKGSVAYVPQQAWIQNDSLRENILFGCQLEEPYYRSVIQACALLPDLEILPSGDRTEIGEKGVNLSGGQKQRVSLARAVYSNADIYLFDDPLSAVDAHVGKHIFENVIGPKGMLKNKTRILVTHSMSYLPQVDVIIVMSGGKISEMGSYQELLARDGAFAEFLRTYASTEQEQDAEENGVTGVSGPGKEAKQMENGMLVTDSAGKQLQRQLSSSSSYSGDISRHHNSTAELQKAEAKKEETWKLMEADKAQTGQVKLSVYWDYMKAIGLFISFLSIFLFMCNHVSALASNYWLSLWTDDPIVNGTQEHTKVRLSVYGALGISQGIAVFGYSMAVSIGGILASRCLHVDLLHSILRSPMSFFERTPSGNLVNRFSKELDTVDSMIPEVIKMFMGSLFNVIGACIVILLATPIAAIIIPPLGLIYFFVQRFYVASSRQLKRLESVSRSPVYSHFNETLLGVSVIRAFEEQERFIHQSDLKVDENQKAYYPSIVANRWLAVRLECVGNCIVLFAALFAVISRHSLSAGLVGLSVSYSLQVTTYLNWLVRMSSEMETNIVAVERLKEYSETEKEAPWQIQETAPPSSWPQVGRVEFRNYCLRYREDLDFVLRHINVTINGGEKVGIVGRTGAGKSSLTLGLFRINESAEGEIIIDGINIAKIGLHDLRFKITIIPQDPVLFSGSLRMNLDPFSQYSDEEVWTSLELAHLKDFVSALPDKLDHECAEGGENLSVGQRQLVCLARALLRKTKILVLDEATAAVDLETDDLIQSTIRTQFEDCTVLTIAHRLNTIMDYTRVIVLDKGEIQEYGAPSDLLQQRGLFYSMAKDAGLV

As to `CC(C)[C@H](NC(=O)[C@H](CO)NC(=O)[C@@H](N)Cc1ccc(O)cc1)C(=O)O` (H-Tyr-Ser-Val-OH), the fold change (FC) in the series listed under Homo sapiens [1] is 3; in the series listed under Homo sapiens [2], 1 to 2.

On to `CC[C@]12CCCN[C@]13/C(=C\C(=O)OC)c1ccccc1N3C(=O)CC2`, for which the fold change (FC) in the series filed under Homo sapiens [3] worked out at 4.7.

In the case of `COc1ccc2c3c(c4cc(OC)c(OC)cc4c2c1)C[C@H]1CCCN1C3`, the CI in the series listed under Homo sapiens [4] amounted to 0.45.

Regarding `CO[C@@]1(C)N(C/C=C/c2ccccc2)C(=O)C2=C[C@@]3(C(=O)N(C)c4ccccc43)C(=O)N21`, the fold change (FC) in the series listed under Homo sapiens [5] is 42; in the series on K562/A02 [6], 16; in the series filed under Homo sapiens [7] it was 10.

For the compound `O=C(/C=C/C=C/c1ccc2c(c1)OCO2)N1CCCCC1`, the fold change (FC) in the series filed under Homo sapiens [5] was determined as 32; in the series listed under Homo sapiens [8], 14; in the series filed under Homo sapiens [9], 7.

As to `CCCCC(CC(C)=O)n1cnc2c(N)ncnc21` (stereo not given), the fold change (FC) in the series on K562/A02 [10] is 1.5 to 2.7.

For `O=C1CCC[C@@H]2[C@H]3CCCN4CCC[C@@H](CN12)[C@@H]34`, the fold change (FC) in the series filed under Homo sapiens [11] was 2.2.

Take `COc1cc2c(cc1OC)-c1c(OC)c(OC)cc3c1[C@H](C2)N(C)CC3` [GLAUCINE]: the results for the fold change (FC) (in the series listed under Homo sapiens [12]; in series [13]; in the series filed under Homo sapiens [5]) were 7, 22 and 7, respectively.

Consider `CC[C@@H](O)[C@H]1CC[C@H]2O[C@H]3CCN1[C@@H]2[C@@H]1C3O/C(=C2\OC(=O)C(C)=C2OC)[C@H]1C` (stereo not given in full), for which the fold change (FC) in the series listed under Homo sapiens [14] was found to be 2.

Turning to `C=C[C@H]1CN2CC[C@H]1C[C@@H]2[C@@H](OC(=O)CCCCCCCC(=O)O[C@@H](c1ccnc2ccc(OC)cc12)[C@H]1C[C@@H]2CCN1C[C@@H]2C=C)c1ccnc2ccc(OC)cc12`, the IC50 (as a rule, the concentration at which inhibition is half-maximal) in series [15] was determined as 1.7 µM; in [16], 2 µM.

In the case of `CN1[C@@H](CC(=O)c2ccccc2)CCC[C@H]1CC(O)c1ccccc1` (stereo not given in full), the fold change (FC) is 3.5 in the series filed under Homo sapiens [17] and 2.5 to 3 in the series listed under Homo sapiens [18].

Turning to `COc1ccc(CCn2cc(-c3ccc(OC)c(OC)c3)c3c4cc(OC)c(OC)cc4oc(=O)c32)cc1OC`, the fold change (FC) was determined as 350 in the series filed under Mus musculus, 35 in the series filed under Homo sapiens [19], 6.2 in the series listed under Homo sapiens [20] and 350 in the series filed under Homo sapiens [21].

As for `CN1c2ccccc2[C@@]23C[C@H]4C(=O)N5[C@H]6N(C[C@@]7(C)O[C@@H]7C2)c2ccccc2[C@@]6(C)C[C@H]5C(=O)N4[C@H]13`, the fold change (FC) in the series filed under Homo sapiens [22] is 2.

Regarding H-KILRGVCKKIMRTFLRRISKDILTGKK-OH, the fold change (FC) in the series on NCI-H460 was determined as 5.

Take `CN1Cc2c(ccc3c2OCO3)C2C(O)Cc3cc4c(cc3C21)OCO4` (stereo not drawn) [CHELIDONINE (+)]: the fold change (FC) was found to be 6 in the series filed under Homo sapiens [17] and 3 in the series listed under Homo sapiens [18]. Also, the concentration for half-maximal inhibition (IC50) in series [23] is 9 µM; in [24], 11 µM.

These data come from ChEMBL document CHEMBL4190243, “Natural alkaloids as P-gp inhibitors for multidrug resistance reversal in cancer” (Eur J Med Chem, 2017).
